Target: T1, SIRT2 (Homo sapiens, UniProt Q8IXJ6)
T1 construct: For assay experiments, strep-tagged human SIRT1134−747 and SIRT256-356 were expressed and purified as previously; Strep-tag; made in house; host or cells: E. coli BL21 Star (DE3)
T1 sequence (Q8IXJ6 56-356 limits assumed): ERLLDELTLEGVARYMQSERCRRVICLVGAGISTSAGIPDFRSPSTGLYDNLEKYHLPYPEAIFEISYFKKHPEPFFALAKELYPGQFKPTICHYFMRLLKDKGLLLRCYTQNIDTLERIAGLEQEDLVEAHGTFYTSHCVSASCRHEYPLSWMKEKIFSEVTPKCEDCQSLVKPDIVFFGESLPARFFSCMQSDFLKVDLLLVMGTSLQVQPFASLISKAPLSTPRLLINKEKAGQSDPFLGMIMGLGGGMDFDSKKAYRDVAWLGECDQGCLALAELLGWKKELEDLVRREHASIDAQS
Assay: Fluorescence polarization assay (FPA)
Format: binding
Conditions: with versus without NAD+
Experimental: Protein expression and purification for assays and crystallization
For assay experiments, strep-tagged human SIRT1134−747 and SIRT256-356 were expressed and purified as previously described.[2,4] Briefly, chemically competent E. coli BL21 Star (DE3) cells were transformed with pET30S-hSIRT1134−747 or pET30S-hSIRT256−356 plasmids. Cell cultures were grown in 2× YT medium (5 g/L NaCl, 16 g/L tryptone, 10 g/L yeast extract) supplemented with 50 μg/mL kanamycin at 37 °C reaching an OD600 of 0.6 − 0.7.
Protein expression of SIRT1134−747 and SIRT256−356 was induced with 1 mM IPTG (isopropyl β- D-1-thiogalactopyranoside), followed by incubation for 16 h at 20 °C. […]
Protein purity and identity were confirmed by SDS-PAGE and protein concentration was determined using the BCA assay with BSA as a standard. […] […]
A solution of 10 µL SIRT2 (final concentration of 6.0 µM) and SYPRO Orange (5x, Sigma-Aldrich, Germany) in assay buffer (25 mM Tris-HCl, 150 mM NaCl, 1 mM DTT, pH 8.0) was mixed with 10 µL of compound and incubated at 25 °C and 350 rpm for 5 min. […] Fluorescence intensity was recorded during a temperature gradient of 1°C per 20 s from 25 to 95°C using a real-time PCR machine (C1000 Touch™ Thermal Cycler, CFX96™ Real-Time System, BioRad, USA). […]

| change of affinity upon NAD+ addition (FP) | SMILES |
| --- | --- |
| increased affinities upon NAD+ addition | Cc1cc(C)nc(SCC(=O)Nc2ncc(Cc3cccc(OCc4c[nH]nn4)c3)s2)n1 [Compound 7] |
| increased affinities upon NAD+ addition | COCCn1cc(COc2cccc(Cc3cnc(NC(=O)CSc4nc(C)cc(C)n4)s3)c2)nn1 [Compound 1, reference compound] |

— paper PMC12723449, “From Pharmacophore to Warhead: NAD^+‐Targeting Triazoles as Mechanism‐Based Sirtuin Inhibitors” (Angewandte Chemie (International Ed. in English), 2025)
